Experimental data published in patent US6916616B2, “Stabilized aqueous nucleoside triphosphate solutions” (priority 1996, dated 2005).

Legend:
Assay type in all cases: physicochemical
[1] = Stabilization at room temperature (real-time model, 204 days, 20° C.); settings: for difference in decrease of triphosphate content pH 8.3 vs pH 7.5: 204 days
Protocol: (§1) d-NTP solutions at a concentration of 100 to 110 mmol/l were adjusted to pH values between 7.5 and 8.3 with sodium hydroxide solution. The sample was stored at 35° C., 22° C., 4° C. and −20° C. Aliquots were removed at various time points and the purity was examined by means of HPLC. The relative amount of the tri, di and monophosphate as well as of the free base was determined by integrating the areas.
After 204 days (20° C.) the difference in the pH stabilization became apparent (in the real-time model). […] In the case of d-GTP solutions the triphosphate content decreased for example by ca. 6.8% at pH 7.5 and by ca. 5.2% at pH 8.3 (difference 23%).

[2] = Stress experiments of d-NTP solutions at 35° C., triphosphate content by HPLC; settings: pH 8.3 compared to pH 7.5, 35° C., three independent stress experiments, samples between 7 and 89 days
Protocol: as §1, with “areas. The stabilization was estimated by the following formula from three independent stress experiments of d-NTPs at pH 8.3 and 7.5 at 35° C. in which samples were taken at intervals between 7 and 89 days. Δ content (pH 8.3)−Δ content (7.5)×100 Δ content (pH 7.5) in which Δ content (pH . . . )=content (t=0)−content (t)” for “areas.”

[3] = Determination of the pH optimum of the d-NTPs (35 days at 35° C., HPLC); settings: 100 to 110 mmol/l
Protocol: d-NTP solutions (dCTP, dTTP, dUTP) at a concentration of 100 to 110 mmol/l were adjusted to pH values between 7.5 and 12 (d-ATP, dGTP not pH 7.9 and 8.3) with sodium hydroxide solution. The sample was stressed for 35 days at 35° C. and subsequently the purity was examined by means of HPLC. The relative amount of the tri, di and monophosphate as well as of the free base was determined by integrating the areas.

difference in decrease of triphosphate content pH 8.3 vs pH 7.5 [1] [%]	decrease of triphosphate content ([1]; pH 7.5, 204 days)	decrease of triphosphate content ([1]; pH 8.3, 204 days)	stabilization, average value [2] [%]	stabilization, maximum value [2] [%]	stabilization, minimum value [2] [%]	degradation up to pH 12 [3]	Compound
17	ca. 7.6%	ca. 6.3%	19	33	9		Nc1ncnc2c1ncn2[C@H]1C[C@H](O)[C@@H](COP(=O)(O)OP(=O)(O)OP(=O)(O)O)O1 [d-ATP]
23	ca. 6.8%	ca. 5.2%	21	30	12		Nc1nc2c(ncn2[C@H]2C[C@H](O)[C@@H](COP(=O)(O)OP(=O)(O)OP(=O)(O)O)O2)c(=O)[nH]1 [d-GTP]

The next lines start with the molecule.

Compound	difference in decrease of triphosphate content pH 8.3 vs pH 7.5 [1] [%]	decrease of triphosphate content ([1]; pH 7.5, 204 days)	decrease of triphosphate content ([1]; pH 8.3, 204 days)	stabilization, average value [2] [%]	stabilization, maximum value [2] [%]	stabilization, minimum value [2] [%]	degradation up to pH 12 [3]
Nc1ccn([C@H]2C[C@H](O)[C@@H](COP(=O)(O)OP(=O)(O)OP(=O)(O)O)O2)c(=O)n1 [d-CTP]				20	37	10	deaminated at pH 12 to form d-UTP
Cc1cn([C@H]2C[C@H](O)[C@@H](COP(=O)(O)OP(=O)(O)OP(=O)(O)O)O2)c(=O)[nH]c1=O [d-TTP]				5	17	26	
O=c1ccn([C@H]2C[C@H](O)[C@@H](COP(=O)(O)OP(=O)(O)OP(=O)(O)O)O2)c(=O)[nH]1 [d-UTP]				5	15	25	
